Test results from patent US10618918B2, “Substituted boronic acids as antimicrobials” (priority 2015, dated 2020).
Like-named read-outs stand apart in the source and are kept apart here.

Tests used:
KP1004 KPC-2 [1] = experiment: Biapenem potentiation (MPC@1), strain KP1004 KPC-2; assay type: cell-based; conditions: minimum BLI concentration inhibiting growth with biapenem 1 μg/mL; tested up to 40 μg/mL
Experimental: (§1) Biapenem was present in the test medium at 1 μg/mL. […] Table 3 summarizes the BLI potency of biapenem potentiation (MPC@1) for two strains overexpressing class A (KPC) and class D (OXA-48) carbapenemases. Biapenem MIC for each strain is also shown.

KP1086 OXA-48 = experiment: Biapenem potentiation (MPC@1), strain KP1086 OXA-48; assay type: cell-based; conditions: minimum BLI concentration inhibiting growth with biapenem 1 μg/mL; tested up to 40 μg/mL
Experimental: as §1

AB1053 OXA-72 = experiment: Meropenem potentiation (MPC@8), strain AB1053 OXA-72; assay type: cell-based, Acinetobacter baumannii; conditions: minimum BLI concentration inhibiting growth with meropenem 8 μg/mL; tested up to 20 μg/mL
AB1054 OXA-23 = experiment: Meropenem potentiation (MPC@8), strain AB1054 OXA-23; assay type: cell-based, Acinetobacter baumannii; conditions: minimum BLI concentration inhibiting growth with meropenem 8 μg/mL; tested up to 20 μg/mL
[2] = molecular target: T1, purified class A, C and D enzymes (β-lactamases) (Acinetobacter baumannii, UniProt Q9L4P2); experiment: biochemical; assay type: biochemical; conditions: purified OXA-23; nitrocefin (NCF) as reporter substrate
T1 construct: rows headed: Ki (OXA-23, NCF), uM; other: purified OXA-23; nitrocefin (NCF) as reporter substrate
T1 sequence (Q9L4P2 whole entry): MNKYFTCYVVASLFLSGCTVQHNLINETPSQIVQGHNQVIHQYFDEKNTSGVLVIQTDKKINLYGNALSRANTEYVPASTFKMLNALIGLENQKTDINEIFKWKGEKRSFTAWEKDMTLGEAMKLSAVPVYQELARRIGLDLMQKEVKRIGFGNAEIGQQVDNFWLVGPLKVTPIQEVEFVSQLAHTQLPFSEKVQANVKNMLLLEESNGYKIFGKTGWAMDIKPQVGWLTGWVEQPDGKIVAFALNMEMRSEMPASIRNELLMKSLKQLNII

[3] = molecular target: purified class A, C and D enzymes (β-lactamases) (Enterobacter cloacae, UniProt P05364); experiment: biochemical; assay type: biochemical
Chain of purified class A, C and D enzymes (β-lactamases) (Enterobacter cloacae, UniProt P05364) (P05364 21-381): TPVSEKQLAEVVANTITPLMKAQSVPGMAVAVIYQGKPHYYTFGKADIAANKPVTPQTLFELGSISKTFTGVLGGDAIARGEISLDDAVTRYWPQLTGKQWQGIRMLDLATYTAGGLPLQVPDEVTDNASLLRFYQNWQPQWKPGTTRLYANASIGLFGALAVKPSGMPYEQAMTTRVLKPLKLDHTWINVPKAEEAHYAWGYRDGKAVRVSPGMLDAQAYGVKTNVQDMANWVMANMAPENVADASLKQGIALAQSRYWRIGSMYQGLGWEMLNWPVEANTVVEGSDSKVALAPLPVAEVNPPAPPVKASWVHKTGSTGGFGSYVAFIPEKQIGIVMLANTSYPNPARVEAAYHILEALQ

[4] = molecular target: purified class A, C and D enzymes (β-lactamases) (Escherichia coli, UniProt Q9L5C7); experiment: biochemical; assay type: biochemical; conditions: purified CTX-M-14; nitrocefin (NCF) as reporter substrate
Chain of purified class A, C and D enzymes (β-lactamases) (Escherichia coli, UniProt Q9L5C7) (Q9L5C7 entry or part of it): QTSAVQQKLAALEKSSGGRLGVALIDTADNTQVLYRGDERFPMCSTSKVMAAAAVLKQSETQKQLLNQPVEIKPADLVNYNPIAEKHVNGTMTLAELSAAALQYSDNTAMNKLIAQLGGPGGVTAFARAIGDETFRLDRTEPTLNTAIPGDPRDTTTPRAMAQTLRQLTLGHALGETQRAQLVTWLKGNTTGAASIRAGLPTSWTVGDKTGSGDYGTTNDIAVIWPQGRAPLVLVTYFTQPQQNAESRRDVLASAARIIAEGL

[5] = molecular target: purified class A, C and D enzymes (β-lactamases) (Klebsiella pneumoniae, UniProt Q6XEC0); experiment: biochemical; assay type: biochemical; conditions: purified OXA-48; nitrocefin (NCF) as reporter substrate
[6] = molecular target: purified class A, C and D enzymes (β-lactamases) (Klebsiella pneumoniae, UniProt Q9F663); experiment: biochemical; assay type: biochemical; conditions: purified KPC-2; nitrocefin (NCF) as reporter substrate
[7] = molecular target: T2, purified class A, C and D enzymes (β-lactamases) (Pseudomonas aeruginosa, UniProt P24735); experiment: biochemical; assay type: biochemical
T2 construct: rows headed: Ki (Pa-AmpC, NCF), uM; other: purified Pa-AmpC; nitrocefin (NCF) as reporter substrate
T2 sequence (P24735 whole entry): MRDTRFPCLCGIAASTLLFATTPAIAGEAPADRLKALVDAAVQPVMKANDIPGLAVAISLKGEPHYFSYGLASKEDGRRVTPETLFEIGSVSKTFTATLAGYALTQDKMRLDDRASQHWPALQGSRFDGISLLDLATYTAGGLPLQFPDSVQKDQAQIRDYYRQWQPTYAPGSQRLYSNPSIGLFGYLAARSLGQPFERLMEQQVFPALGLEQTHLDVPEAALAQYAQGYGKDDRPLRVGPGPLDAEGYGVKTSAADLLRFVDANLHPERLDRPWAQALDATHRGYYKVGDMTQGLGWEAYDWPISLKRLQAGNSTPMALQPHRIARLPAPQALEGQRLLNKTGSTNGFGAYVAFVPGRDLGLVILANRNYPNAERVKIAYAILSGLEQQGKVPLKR

ECL1002 = experiment: Aztreonam potentiation (MPC@4), strain ECL1002; conditions: minimum BLI concentration inhibiting growth with aztreonam 4 μg/mL; tested up to 40 μg/mL
ec308 SHV-5 = experiment: Aztreonam potentiation (MPC@4), strain ec308 SHV-5; conditions: minimum BLI concentration inhibiting growth with aztreonam 4 μg/mL; tested up to 40 μg/mL
ec302 TEM-10 = experiment: Aztreonam potentiation (MPC@4), strain ec302 TEM-10; conditions: minimum BLI concentration inhibiting growth with aztreonam 4 μg/mL; tested up to 40 μg/mL
KP1004 KPC-2 [8] = experiment: Aztreonam potentiation (MPC@4), strain KP1004 KPC-2; conditions: minimum BLI concentration inhibiting growth with aztreonam 4 μg/mL; tested up to 40 μg/mL
EC1010 CMY-6 = experiment: Aztreonam potentiation (MPC@4), strain EC1010 CMY-6; conditions: minimum BLI concentration inhibiting growth with aztreonam 4 μg/mL; tested up to 40 μg/mL
KP1010 SHV-12 = experiment: Aztreonam potentiation (MPC@4), strain KP1010 SHV-12; conditions: minimum BLI concentration inhibiting growth with aztreonam 4 μg/mL; tested up to 40 μg/mL
KP1009 CTX-M-15 = experiment: Aztreonam potentiation (MPC@4), strain KP1009 CTX-M-15; conditions: minimum BLI concentration inhibiting growth with aztreonam 4 μg/mL; tested up to 40 μg/mL
KP1005 CTX-M-14 = experiment: Tigemonam potentiation (MPC@4), strain KP1005 CTX-M-14; conditions: minimum BLI concentration inhibiting growth with tigemonam 4 μg/mL; tested up to 40 μg/mL

Compound	BPM MPC1 KP1004 KPC-2 (KP1004 KPC-2 [1])	BPM MPC1 OXA-48 KP1086 (KP1086 OXA-48)	MPM MPC8 AB1053 OXA-72 (AB1053 OXA-72)	MPM MPC8 AB1054 OXA-23 (AB1054 OXA-23)	Ki [2]	Ki (P99, NCF), uM ([3]; purified P99, nitrocefin (NCF) as reporter substrate)	Ki (CTX-M-14, NCF), uM [4]	Ki (OXA-48, NCF), uM [5]	Ki (KPC-2, NCF), uM [6]	Ki ([7]; purified Pa-AmpC, nitrocefin (NCF) as reporter substrate, read-out: Ki (Pa-AmpC, NCF))	AZT MPC4 ECL1002 (ECL1002)	AZT MPC4 SHV-5 ec308 (ec308 SHV-5)	AZT MPC4 TEM-10 ec302 (ec302 TEM-10)	AZT MPC4 KPC-2 KP1004 (KP1004 KPC-2 [8])	AZT MPC4 CMY-6 EC1010 (EC1010 CMY-6)	AZT MPC4 SHV-12 KP1010 (KP1010 SHV-12)	AZT MPC4 CTX-M-15 KP1009 (KP1009 CTX-M-15)	TIG MPC4 CTX-M-14 KP1005 (KP1005 CTX-M-14)	Ki (P99, NCF), uM [3]	Ki [7]
O=C(O)c1c(CNc2nncs2)ccc2c1OB(O)CC2 [Compound 64, 2-Hydroxy-7-[(1,3,4-thiadiazol-2-ylamino)methyl]-3,4-dihydro-1,2-benzoxaborinine-8-carboxylic acid]	X (X = MPC@1 ≤ 5 μg/mL)	Y (Y = 5 μg/mL < MPC@1 ≤ 20 μg/mL)	Y (Y = 5 μg/mL < MPC@1 ≤ 20 μg/mL)	Y (Y = 5 μg/mL < MPC@1 ≤ 20 μg/mL)	< 100 nM	X (X = Ki ≤ 0.1 μM)	X (X = Ki ≤ 0.1 μM)	X (X = Ki ≤ 0.1 μM)	X (X = Ki ≤ 0.1 μM)	< 100 nM	X (X = MPC@4 ≤ 5 μg/mL)	X (X = MPC@4 ≤ 5 μg/mL)	X (X = MPC@4 ≤ 5 μg/mL)	X (X = MPC@4 ≤ 5 μg/mL)	X (X = MPC@4 ≤ 5 μg/mL)	X (X = MPC@4 ≤ 5 μg/mL)	X (X = MPC@4 ≤ 5 μg/mL)	Y (Y = 5 μg/mL < MPC@4 ≤ 20 μg/mL)	–	–
O=C([O-])c1c(OCc2ccncc2)ccc2c1O[B-](O)(O)CC2.[Na+].[Na+] [Compound 28, Disodium; 4,4-dihydroxy-8-(4-pyridylmethoxy)-5-oxa-4-boranuidabicyclo[4.4.0]deca-1(6),7,9-triene-7-carboxylate]	X (X = MPC@1 ≤ 5 μg/mL)	X (X = MPC@1 ≤ 5 μg/mL)	X (X = MPC@1 ≤ 5 μg/mL)	X (X = MPC@1 ≤ 5 μg/mL)	< 100 nM	–	X (X = Ki ≤ 0.1 μM)	X (X = Ki ≤ 0.1 μM)	X (X = Ki ≤ 0.1 μM)	–	Y (Y = 5 μg/mL < MPC@4 ≤ 20 μg/mL)	Y (Y = 5 μg/mL < MPC@4 ≤ 20 μg/mL)	X (X = MPC@4 ≤ 5 μg/mL)	X (X = MPC@4 ≤ 5 μg/mL)	X (X = MPC@4 ≤ 5 μg/mL)	X (X = MPC@4 ≤ 5 μg/mL)	Y (Y = 5 μg/mL < MPC@4 ≤ 20 μg/mL)	Z (Z = MPC@4 > 20 μg/mL)	X (key: X = Ki ≤ 0.1 μM; Y = 0.1 μM < Ki ≤ 1 μM; Z = Ki > 1 μM)	< 100 nM
